Assay results reported in patent US20230404987A1, “METHOD OF TREATING BREAST CANCER” (Eisai R&D Management Co., Ltd., priority 2020, published 2023).
Several values for one entry are separate records, joined by “and”; a condition that tells them apart may be missing. Equal values may be shown once.

Tests used:
[1] = system: PDX breast cancer models, including those with mutated ESR1; conditions: multiple PDX breast cancer models; cited from earlier work
[2] = system: women with locally advanced or metastatic ER+, HER2-negative breast cancer; assay: Phase 1/2 study of Compound 1 QD PO: safety (DLT, adverse events); format: in vivo, human
Experimental: (§1) Compound 1 was tested in a first-in-human, Phase 1/2 study in women with locally advanced or metastatic ER+, HER2-negative breast cancer. In this multicenter study, women with locally advanced or metastatic ER+, HER2− breast cancer were treated with Compound 1 administered QD, PO over a 28-day cycle after progression on at least 1 hormonal therapy and at least 1 additional therapy/regimen.
(§2) The primary objective of the Phase 1 was to determine the MTD and RP2D in pretreated subjects with ER+, HER2−metastatic breast cancer. Secondary objectives included safety and antitumor activity. The primary objective of the Phase 2 was to estimate the efficacy of this agent in terms of objective response rate (ORR), clinical benefit rate (CBR), and progression-free survival (PFS). Secondary objectives included safety. The trial was designed to exclude a lower limit of ORR of 5% at one-sided level of significance of 0.05 and a power of 90%.
The Phase 1 part evaluated once daily doses from 100 to 600 mg. […] Consequently, the dose of 450 mg was selected as the RP2D.

[3] = system: locally advanced or metastatic ER+, HER2-negative breast cancer; assay: Phase 1/2 study of Compound 1 QD PO: antitumor efficacy (best overall response, CBR, PFS); format: in vivo, human; conditions: for Confirmed partial responses / Clinical benefit rate (≥23 weeks) / Stable disease (SD) rate: response-evaluable subjects; for mPFS: started on 450 mg; for Median PFS: full analysis set; for Progression free survival, median (95% CI): FIG. 4, Example 3; for Progression free survival, median (95%): FIG. 3, Example 3
Experimental: as §1, §2
Over 30 months, 130 patients were enrolled; 47 in the Phase 1 part and 83 in the Phase 2 part of the trial. A total of 105 subjects, including 73 subjects on 450 mg were response-evaluable.
Experiments conducted subsequent to those reported in Example 1 were directed to identify the parameters driving the activity of Compound 1 in the trial population. Two parameters were of particular interest: 1) PgR status, and 2) ESR1 mutant type and allele frequency. PFS was used in these analyses because it is a continuous variable. […] The effect of baseline circulating ESR1, of particular ESR1 mutants and their allele frequency was unknown.
The effect of PgR positivity and the detection prior to treatment of ESR1 mutations Y537S and D538G on median PFS was then investigated using the Kaplan-Meier method. The effect of ESR1 clonality was also investigated since the presence of simultaneous clones of ESR1 mutations likely indicates very advanced or complex disease. Of note, the allele frequencies of the different ESR1 mutants were not identical, indicating the presence of multiple clones in a tumor, rather than multiple mutations in the same tumor ESR1 gene. For the purpose of these analyses, clonal Y537S was defined as ESR1 Y537S mutation detected in a pre-treatment whole blood sample at a mutant allele frequency (MAF)≥0.5% with a MAF for D538G<0.5%. Conversely, clonal D538G was defined as ESR1 D538G mutation detected in a pre-treatment whole blood sample at a MAF≥0.5% with a MAF for Y537S<0.5%.
Following data analysis described above, patients remained in the Phase 2 study reported in Example 1, and clinical data collection continued. The primary objective of this study was to estimate the efficacy of Compound 1 in terms of best overall response rate (ORR), duration of response (DoR), clinical benefit rate, and progression-free survival (PFS) in all subjects and in those with and without ERα mutation (ERαMUT).
83 patients were treated with 450 mg in the Phase 2 study of Example 1. Additionally, 11 patients who were treated with 450 mg in the Phase 1 part of the trial (also discussed in Example 1) have been grouped with these 83 Phase 2 patients for discussion in this example. […] Patients were heavily pretreated, and 85% of the patients received prior CDK4/6 inhibitors.

[4] = 450 mg, N = 72, response-evaluable set, Example 3
[5] = 450 mg, N = 73, response evaluable set, Example 1
[6] = 10 patients with clonal ESR1 Y537S, 450 mg, Example 3
[7] = Clonal D538G (N = 17), 450 mg, Example 3
[8] = Clonal Y537S (N = 10), 450 mg, Example 3
[9] = Clonal Y537S or Clonal D538G (N = 27), 450 mg, Example 3
[10] = Polyclonal Y537S and D538G (N = 2), 450 mg, Example 3
[11] = Y537S and D538G Negatives (N = 43), 450 mg, Example 3
[12] = all doses, N = 105, response evaluable set, Example 1

CN(C)C(=O)/C=C/CNCCOc1ccc(/C(=C(/CC(F)(F)F)c2ccccc2)c2ccc3[nH]nc(F)c3c2)cn1 [Compound 1]
Antitumor activity [1]: significant antitumor activity | Dose-limiting toxicities (DLTs) observed ([2]; 600 mg cohort, in 2 of 7 subjects (Grade 3 fatigue and Grade 3 drug eruption)): 2 DLTs | Dose-limiting toxicities (DLTs) ([2]; Phase 1, once daily doses up to 450 mg): No dose-limiting toxicities | Grade 1 sinus bradycardia (asymptomatic) ([2]; in vivo): 35% | Grade 2 QTcF prolongation ([2]; in vivo): 2 subjects | Grade 2 sinus bradycardia (symptomatic, no intervention needed) ([2]; in vivo): 4% | Grade 3 QTcF prolongation ([2]; in vivo): 3 subjects | Treatment-related deaths ([2]; in vivo): no treatment-related deaths | RP2D (recommended phase 2 dose) ([2]; once daily, PO): 450 mg | Grade 4 AE ([2]; serum bilirubin, urinary tract obstruction, hyponatremia, all considered related to disease progression): Three | Grade 2 or higher adverse event: AST increase ([2]; subjects, all doses): 11% | Grade 2 or higher adverse event: anemia ([2]; subjects, all doses): 20% | Grade 2 or higher adverse event: diarrhea ([2]; subjects, all doses): 11% | Grade 2 or higher adverse event: fatigue ([2]; subjects, all doses): 16% | Grade 2 or higher adverse event: nausea ([2]; subjects, all doses): 14% | Confirmed partial responses ([3]; 450 mg dose, 90% confidence limits 8.7%-23.7): 15% | Median PFS (Kaplan-Meier) ([3]; 450 mg starters with clonal ESR1 Y537S or clonal D538G mutations, Example 2): 5.5 months | Median time to response (min, max) ([3]; 450 mg, N = 72, Example 3): 2.7 (1.6, 5.5) mo | Median duration of response (min, max) ([3]; 450 mg, N = 72, Example 3, descriptive median): 7.5 (3.5, 16.6) mo | Best overall response: Complete response [3, 4]: 0 n (%) | Best overall response: Confirmed partial response [3, 4]: 12 (17) n (%) | Best overall response: Not evaluable [3, 4]: 2 (3) n (%) | Best overall response: Progressive disease [3, 4]: 27 (38) n (%) | Best overall response: Stable disease [3, 4]: 31 (43) n (%) | Clinical benefit rate (CR + PR + SD ≥ 23 weeks) [3, 4]: 29 (40) n (%) | ORR (95% confidence interval) [3, 4]: 17 (9, 27) % | Best overall response: Complete response (CR) [3, 5]: 0 N (%) | Best overall response: Confirmed partial response (PR) [3, 5]: 11 (15) N (%) | Best overall response: Not evaluable [3, 5]: 3 (4) N (%) | Best overall response: Progressive disease (PD) [3, 5]: 26 (36) N (%) | Clinical benefit rate (CR + PR + SD lasting for ≥23 weeks) [3, 5]: 24 (33) N (%) | Clinical benefit rate (≥23 weeks) ([3]; 450 mg): 33% | Stable disease (SD) rate ([3]; 450 mg): 45% | Partial responses [3, 6]: 30% | Stable disease [3, 6]: 40% | mPFS ([3]; All subjects, PgR negative, N=34): 2.1 months | mPFS ([3]; All subjects, PgR positive, N=38): 5.5 months | Clinical benefit rate [3, 7]: 6 (35) n (%) | Complete response [3, 7]: 0 n (%) | Confirmed partial response [3, 7]: 0 n (%) | Not evaluable [3, 7]: 0 n (%) | Progressive disease [3, 7]: 7 (41) n (%) | Stable disease [3, 7]: 10 (59) n (%) | Median PFS ([3]; Clonal D538G, 450 mg, Example 3): 5.4 mo | Progression free survival, median (95% CI) ([3]; Clonal D538G, N=19, 13 events): 5.4 (1.7, 7.2) months | mPFS ([3]; Clonal D538G, PgR negative, N=3): 1.7 months | mPFS ([3]; Clonal D538G, PgR positive (≥1%), N=10): 4.5 months | Clinical benefit rate [3, 8]: 6 (60) n (%) | Complete response [3, 8]: 0 n (%) | Confirmed partial response [3, 8]: 3 (30) n (%) | Not evaluable [3, 8]: 0 n (%) | Progressive disease [3, 8]: 3 (30) n (%) | Stable disease [3, 8]: 4 (40) n (%) | mPFS ([3]; Clonal Y537S + Clonal D538G (combined data), PgR negative, N=3): 1.7 months | mPFS ([3]; Clonal Y537S + Clonal D538G (combined data), PgR positive, N=16): 7.2 months | Clinical benefit rate [3, 9]: 12 (44) n (%) | Complete response [3, 9]: 0 n (%) | Confirmed partial response [3, 9]: 3 (11) n (%) | Not evaluable [3, 9]: 0 n (%) | Progressive disease [3, 9]: 10 (37) n (%) | Stable disease [3, 9]: 14 (52) n (%) | Median PFS ([3]; Clonal Y537S or Clonal D538G, 450 mg, Example 3): 5.4 mo | Median PFS ([3]; Clonal Y537S, 450 mg, Example 3): 7.3 mo | Progression free survival, median (95% CI) ([3]; Clonal Y537S, N=10, 8 events): 7.3 (0.8, 11.2) months and 7.3 months | mPFS ([3]; Clonal Y537S, PgR positive (≥1%), N=6): 13.0 months | Progression free survival, median (95%) ([3]; PgR Negative (≤1% positive cells), N=34, 20 events): 2.1 (1.7, 7.4) months | Progression free survival, median (95%) ([3]; PgR Positive (≥1% positive cells), N=38, 24 events): 5.4 (2.0, 8.8) months | Clinical benefit rate [3, 10]: 1 (50) n (%) | Complete response [3, 10]: 0 n (%) | Confirmed partial response [3, 10]: 0 n (%) | Not evaluable [3, 10]: 0 n (%) | Progressive disease [3, 10]: 1 (50) n (%) | Stable disease [3, 10]: 1 (50) n (%) | Median PFS ([3]; Polyclonal Y537S and D538G, 450 mg, Example 3): 3.5 mo | Progression free survival, median (95% CI) ([3]; Polyclonal Y537S and D538G, N=4, 3 events): 3.5 (1.7, 5.4) months | mPFS ([3]; Polyclonal, PgR positive, N=3): 2.6 months | Clinical benefit rate [3, 11]: 16 (37) n (%) | Complete response [3, 11]: 0 n (%) | Confirmed partial response [3, 11]: 9 (21) n (%) | Not evaluable [3, 11]: 2 (5) n (%) | Progressive disease [3, 11]: 16 (37) n (%) | Stable disease [3, 11]: 16 (37) n (%) | Median PFS ([3]; Y537S and D538G Negatives, 450 mg, Example 3): 3.8 mo | Progression free survival, median (95% CI) ([3]; Y537S and D538G negatives, N=61, 33 events): 3.8 (2.0, 7.3) months | mPFS ([3]; Y537S/D538G absent, PgR negative, N=31): 2.1 months | mPFS ([3]; Y537S/D538G absent, PgR positive, N=19): 3.8 months | Median progression free survival ([3]; all 94 patients treated with 450 mg, Example 3): 5.1 months | Best overall response: Complete response (CR) [3, 12]: 0 N (%) | Best overall response: Confirmed partial response (PR) [3, 12]: 13 (12) N (%) | Best overall response: Not evaluable [3, 12]: 7 (7) N (%) | Best overall response: Progressive disease (PD) [3, 12]: 37 (35) N (%) | Clinical benefit rate (CR + PR + SD lasting for ≥23 weeks) [3, 12]: 36 (34) N (%) | Clinical benefit rate (≥23 weeks) ([3]; all doses): 34% | Stable disease (SD) rate ([3]; all doses): 46% | Confirmed partial responses ([3]; all doses, 90% confidence limits 7.5%-19%): 12% | Anti-tumor activity (conclusion) ([3]; monotherapy, once daily 450 mg, heavily pretreated ER+, HER2−, metastatic breast cancer patients): demonstrated anti-tumor activity | Median PFS (Kaplan-Meier) ([3]; subjects who started at the 450 mg dose, 95% CI 3.2-6.2, Examples 1 and 2): 3.8 months
